One may read the ED50 as the midpoint of the dose-response relation. The term MIC denotes the lowest concentration found to suppress growth. Read a low MIC as a more susceptible organism.

These results are taken from EP1222194B1, “7-ACYLAMINO-3-HETEROARYLTHIO-3-CEPHEM CARBOXYLIC ACID ANTIBIOTICS AND PRODRUGS THEREOF” (priority 1999, dated 2001).

≈ marks a conversion by molar mass, not a printed value.

For data set [1], the system named is S. aureus ATCC 13709 (Smith diffuse). Kind of data set: Murine model for lethal bacteremic peritonitis (septicemia). The class given is in vivo, mice. The following applies: Staphylococcus aureus, ATCC13709, sc; mice, S. aureus ATCC 13709 ip; subcutaneous treatment at 0 and 2 hrs post-challenge; probit method; no unit given for ED50 (doses in mg/kg); read-out: Efficacy in murine septicemia ED50. As for the experimental part:
10 mice/group were injected intraperitoneally with 2.98x10^7 cfu S. aureus ATCC 13709 (Smith diffuse) and treated at 0 and 2hrs post-challenge with serial two-fold doses of new cephalosporin antibiotic, imipenem and vancomycin subcutaneously in order to determine the ED50. Male Swiss-Webster mice weighing originally 24.2 - 26.1 g were obtained from Charles Rivers Labs, Hollister, CA. Mice were housed 10 per cage and given free access to water and mouse chow.
Staphylococcus aureus ATCC 13709 (Smith diffuse) was grown overnight at 37 °C in Brain-heart Infusion broth (BHIB). The following morning, it was subcultured to fresh BHIB and incubated for 4-5h at 37 °C. The log-phase growth cells were washed once with physiological saline and adjusted to the desired concentration by correlation of absorbency at OD 600 nm with predetermined plate counts (NCCLS, 1994). The cell suspension was mixed with an equal volume of sterile 14% hog-gastric mucin (2). Inoculum was kept in an ice bath until used (<1h).
Mice were challenged via an injection of 0.5 mL bacterial suspension intraperitoneally. The bacterial challenge was 2.98 x 10^7 cfu/mouse.
Imipenem (Primaxin IV; Lot 7294A), vancomycin (Vancocin; Lot 8MU60W), and new cephalosporin antibiotic were prepared by serial two-fold dilutions to concentrations of 0.078 - 0.005 mg/mL, 1.2 - 0.075 mg/mL, 0.3 - 0.02 mg/mL, 0.3 - 0.02 mg/mL and 0.3 - 0.02 mg/mL respectively in sterile water (1). All antibiotics were administered subcutaneously in 0.1 mL volumes at 0 and 2 hours post-challenge. Concentrations of all compounds are based on the weight of the bioactive ingredients.
The 50% effective dose (ED50) was calculated by the probit method (3) utilizing a program entitled Probit (Nycomed-Salutar).

The nature of data set [2]: In vitro stability of compounds in rat serum. The class given is in vitro ADME. To be noted: % loss after 60 min exposure to rat serum as determined by HPLC; 37 °C. As for the experimental part: In general, compounds from the class of 7-acylamino-3-heteroarylthio-3-cephem carboxylic acids have higher chemical reactivity and lower stability towards chemical or enzymatic decomposition than most typical cephalosporins. […] Results shown in Table 2 represent percentage loss of the initial amount of cephalosporin compound upon 60 min incubation in rat serum.
Procedure for measuring degree of degradation of cephalosporin compounds in rat serum was as follows:
Fresh control rat serum (heparinized and stored frozen) is preincubated at 37 °C for 15 min in a shaking water bath. pH is measured using test strips. 25 µL of a 2 mg/mL solution cephalosporin compound (in water) of is then added to each matrix to make 1000 µL. Solutions were incubated at 37 °C. 100ul of solution was taken out at time = 0, 15, 30, and 60 min post dose and added 200 µL 4% trichloroacetic acid, vortexed, and centrifuged for 10 min at 14,000 rpm in an Eppendorfmicrocentrifuge. 25 µL of each supernatant was injected onto HPLC. Experiment was repeated using 25 µL of a 0.2 mg/mL cephalosporin compound. Degradation is measured as the percentage of HPLC peak area at time t relative to peak area at time 0.
HPLC conditions: Beckman Ultrasphere C18 column. 5u. 4.6mm x 25cm. 1 mL/min of 95% 0.1 M ammonium acetate, pH 6, 5% ACN going to 75% buffer/organic over 20min. UV monitored at 254 and 280 nm.

Data set [3] concerns S. aureus Col8A(Meth^S)(lac^-). Kind of data set: Broth microdilution MIC (NCCLS). To be noted: Staphylococcus aureus, Mueller-Hinton Broth, 24 h at 35 °C. The class given is cell-based. As for the experimental part:
(§1) Compounds were evaluated for antimicrobial activity against a panel of bacterial strains using a broth microdilution assay performed as recommended by the NCCLS (1). The minimum inhibitory concentration (MIC) was defined as the lowest concentration of drug which prevented the growth of the bacteria. The following 16 organisms constituted the primary panel of evaluation:
(§2) For this primary panel, the assay was performed in Mueller-Hinton Broth (MHB) with a final bacterial inoculum of 5 x 10^5 CFU/mL (from an early-log phase culture) and a final volume of 100 µL. Control drugs, including imipenem, vancomycin, Penicillin G, dicloxacillin (vs. MSSA ATCC29213 only), and new compounds were prepared at a concentration equivalent to 2-fold the desired final concentration. Dilution of compounds were prepared directly in the plates by serial 2-fold dilution using a multichannel pipette. Positive and negative growth control were included in each plate.
(§3) The bacterial inocula were prepared as follows. For each strain one isolated colony was used to inoculate a volume of 8 mL of Mueller-Hinton broth and these cultures were incubated overnight (20h) at 35 °C in a shaking incubator. At the exception of Enterococcus strains, culture were then diluted 1:10 and allowed to grow for an additional one hour at 35 °C in a shaking incubator. The inocula were prepared by diluting the early log-phase (1h) cultures 1:1000 with fresh Mueller-Hinton broth. E. faecium and E. faecalis were prepared by diluting overnight cultures 1:333 and 1:666, respectively, with fresh Mueller-Hinton broth . A volume of 50 µL of the inocula was added to each well. […] The exact inocula were determined by applying […] of 10-fold serial dilution of the bacterial suspensions on TSA. After overnight incubation at 35 °C, colony forming units were manually counted.
(§4) Microtiter plates were incubated during 24 h at 35 °C and were read using a microtiterplate reader (Molecular Devices) at 650 nm as well as by visual observation using a microtiterplate reading mirror.
(In general: In broth dilution the organism is exposed to a series of concentrations in liquid medium.)

The subject of the next data set is S. aureus ATCC 29213. Kind of data set: Broth microdilution MIC (NCCLS). The class given is cell-based. To be noted: Staphylococcus aureus, ATCC29213, Mueller-Hinton Broth, 24 h at 35 °C. The protocol: as §1, §2, §3, §4
In data set [4] the test system is S. aureus ATCC 13709 (Meth^S). Kind of data set: Broth microdilution MIC (NCCLS). The class given is cell-based. To be noted: Staphylococcus aureus, ATCC13709, Mueller-Hinton Broth, 24 h at 35 °C. As for the experimental part:
as §1, §2, §3, §4

In data set [5] the test system is S. aureus ATCC 33593 (Meth^R). Kind of data set: Broth microdilution MIC (NCCLS). The following applies: Staphylococcus aureus, ATCC33593, Mueller-Hinton Broth, 24 h at 35 °C. The class given is cell-based. As for the experimental part:
as §1, §2, §3, §4

The test system of the next data set is E. faecium VanA (Van^R). As to the kind of experiment: Broth microdilution MIC (NCCLS). The class given is cell-based. The following applies: Enterococcus faecium, Mueller-Hinton Broth, 24 h at 35 °C. The protocol: as §1, §2, §3, §4
Another data set concerns E. coli ATCC25992. As to the kind of experiment: Broth microdilution MIC (NCCLS). The following applies: Escherichia coli, Mueller-Hinton Broth, 24 h at 35 °C. The class given is cell-based. As for the experimental part: as §1, §2, §3, §4
A further data set has as its system E. faecalis ATCC 29212. Kind of data set: Broth microdilution MIC (NCCLS). The class given is cell-based. The following applies: Enterococcus faecalis, ATCC29212, Mueller-Hinton Broth, 24 h at 35 °C. As for the experimental part: as §1, §2, §3, §4
The test system of another data set is E. faecium ATCC 35667. As to the kind of experiment: Broth microdilution MIC (NCCLS). The following applies: Enterococcus faecium, ATCC35667, Mueller-Hinton Broth, 24 h at 35 °C. The class given is cell-based. As for the experimental part:
as §1, §2, §3, §4

The test system of data set [6] is S. aureus 76 (Meth^R)(lac^+). Kind of data set: Broth microdilution MIC (NCCLS). The class given is cell-based. The following applies: Staphylococcus aureus, Mueller-Hinton Broth, 24 h at 35 °C. As for the experimental part:
as §1, §2, §3, §4

Another data set concerns E. faecium A491 (Amp^R). As to the kind of experiment: Broth microdilution MIC (NCCLS). The class given is cell-based. To be noted: Enterococcus faecium, Mueller-Hinton Broth, 24 h at 35 °C. As for the experimental part: as §1, §2, §3, §4
Data set [7] relates to S. aureus Spain #356 (Meth^R). Kind of data set: Broth microdilution MIC (NCCLS). The class given is cell-based. To be noted: Staphylococcus aureus, Mueller-Hinton Broth, 24 h at 35 °C. As for the experimental part: as §1, §2, §3, §4
The test system of data set [8] is S. haemolyticus 05 (Meth^R). Kind of data set: Broth microdilution MIC (NCCLS). The class given is cell-based. To be noted: Staphylococcus haemolyticus, Mueller-Hinton Broth, 24 h at 35 °C. The protocol:
as §1, §2, §3, §4

The test system of the next data set is E. faecalis VanB (Van^R). Kind of data set: Broth microdilution MIC (NCCLS). The following applies: Enterococcus faecalis, Mueller-Hinton Broth, 24 h at 35 °C. The class given is cell-based. The protocol: as §1, §2, §3, §4
The subject of data set [9] is S. aureus PC1 (Meth^S)(lac^+). As to the kind of experiment: Broth microdilution MIC (NCCLS). The following applies: Staphylococcus aureus, 24 h. The class given is cell-based. The protocol:
as §1, §2, §3, §4

A further data set deals with P. aeruginosa ATCC 27853. As to the kind of experiment: Broth microdilution MIC (NCCLS). The class given is cell-based. The following applies: Pseudomonas aeruginosa, ATCC27853, Mueller-Hinton Broth, 24 h at 35 °C. The protocol:
as §1, §2, §3, §4

Regarding `C[C@@H](O)[C@H]1C(=O)N2C(C(=O)O)=C(SCCN=CN)C[C@H]12` [Imipenem, reference compound], the ED50 in data set [1] is 0.07 mg/kg. The same compound displayed a degraded at 1 h in [2] of 20%. For the same compound, the MIC is 0.015 µg/mL (≈ 0.0501 µM) in data set [3]; at most 0.008 µg/mL against S. aureus ATCC 29213; at most 0.008 µg/mL in data set [4]; 32 µg/mL (≈ 107 µM) in data set [5]; 4 µg/mL (≈ 13.4 µM) in the data set on E. faecium VanA (Van^R); at most 0.25 µg/mL against E. coli ATCC25992. In addition, the minimal inhibitory concentration (MIC) against E. faecalis ATCC 29212 is at most 0.25 µg/mL; in the data set on E. faecium ATCC 35667, 4 µg/mL (≈ 13.4 µM); in data set [6] it was 32 µg/mL (≈ 107 µM); against E. faecium A491 (Amp^R), above 128 µg/mL; in data set [7], 32 µg/mL (≈ 107 µM); in [8], 64 µg/mL (≈ 214 µM). For the same compound, the MIC in the data set with E. faecalis VanB (Van^R) is 0.5 µg/mL (≈ 1.67 µM); in data set [9], 0.015 µg/mL (≈ 0.0501 µM); against P. aeruginosa ATCC 27853 it was 1 µg/mL (≈ 3.34 µM).
